Data reported in patent US11786530B2, “Method against severe acute respiratory syndrome coronavirus 2 infection” (National Yang Ming Chiao Tung University, priority 2021, dated 2023).

Columns and labels:
SARS-CoV-2 = conditions: model cell lines; cited from earlier work
SARS-CoV-2 WA strain = assay: Inhibition of SARS-CoV-2 in infected Vero E6 cells (MTT, OD590) with ZIP delta synergy score; format: cell-based; conditions: Severe acute respiratory syndrome coronavirus 2, Vero C1008, 72 h, read-out: Inhibition rate

Row | SMILES | inhibition of SARS-CoV-2 replication (SARS-CoV-2) | inhibition at 0.2 µM (SARS-CoV-2 WA strain; Comparative group 2: MTX 0.2 μM, remdesivir 0 μM, Vero E6 cells, 3 days) | inhibition at 3 µM (SARS-CoV-2 WA strain)
1 | CN(Cc1cnc2nc(N)nc(N)c2n1)c1ccc(C(=O)N[C@@H](CCC(=O)O)C(=O)O)cc1 [MTX, methotrexate] | dose-dependent, potent inhibition | 11.7% | –
2 | CCC(CC)COC(=O)[C@H](C)N[P@](=O)(OC[C@H]1O[C@@](C#N)(c2ccc3c(N)ncnn23)[C@H](O)[C@@H]1O)Oc1ccccc1 [remdesivir] | – | – | 4.57%
